Assay results from patent US20130022620A1, “ASSAYS AND METHODS PERTAINING TO PRE-AMYLOID INTERMEDIATES” (priority 2011, published 2013).

Assays:
rat INS-1 β-cells = assay: AlamarBlue cell viability assay of β-cells; assay type: cell-based
Method: Transformed rat insulinoma-1 (INS-1) β-cells (which express RAGE) are a pancreatic beta cell line commonly used for studies of h-IAPP induced toxicity. INS-1 cells were grown in RPMI 1640 supplemented with 10% fetal bovine serum (FBS), 11 mM glucose, 10 mM Hepes, 2 mM L-glutamine, 1 mM sodium pyruvate, 50 μM β-mercaptoethanol, 100 U/ml penicillin, and […] streptomycin. Cells were maintained at 37° C./5% CO2.
Cyto-toxicity was measured by AlamarBlue assay. INS-1 β-cells were seeded at a density of 30,000 cells per well in 96-well plates and cultured for 24 hours prior to stimulation with IAPP. Human and rat IAPP were dissolved and incubated in 16 mM tris HCl (pH 7.4, 25° C.) prior to cell stimulation. AlamarBlue was diluted ten-fold in culture media and cells were incubated for 5 hours at 37° C. Fluorescence (excitation 530; emission 590 nm) was measured on a Beckman Coulter DTX880 fluorescent plate reader. Values calculated were relative to those of control cells treated with buffer only. All values represent means±SEM (n=3).
Changes in cell morphology were examined by light microscopy to provide a second method of evaluating cell viability. Transformed rat INS-1 beta cells were photographed immediately prior to assessment of toxicity by Alamar blue cell viability assays. Images were taken using an Olympus BX-61 light microscope.

[1] = Thioflavin-T kinetics and TEM of amyloid formation by IAPP peptides; assay type: physicochemical; settings: wild type IAPP under the conditions described
Method: Thioflavin-T fluorescence was used to monitor the time course of h-IAPP amyloid formation in the presence and absence of sRAGE. To identify which form(s) of h-IAPP interact with RAGE, sRAGE was added to h-IAPP at various time points during the h-IAPP amyloid formation reaction. Aliquots of the reaction mixture were analyzed by adding 100 uL aliquots of the amyloid formation reaction to 96-well plates containing 8 uL of 60 uM thioflavin-T solution at various incubation times after initiation of the amyloid formation reaction. Fluorescence was measured using a Beckman Coulter DTX880 fluorescent plate reader (excitation: 445 nm and emission: 485 nm). Final solution conditions contained 16 mM tris HCl and […] thioflavin-T (pH 7.4). […] All values represent means±SEM (n=3).
Transient kinetic species of h-IAPP were characterized by TEM. TEM images confirm the presence or absence of amyloid which were indicated by thioflavin-T fluorescence. Aliquots (4 μl) were removed from the reaction mixtures monitored by thioflavin-T assays, placed on a carbon-coated 200-mesh copper grid and negatively stained with saturated uranyl acetate. The samples were imaged with a Philips CM12 transmission electron microscope at the New York University electron microscopy core facility. Final solution conditions contained 16 mM tris HCl (pH 7.4).

sRAGE = target: T1, sRAGE (Homo sapiens, UniProt Q15109); assay: Surface plasmon resonance binding to immobilized sRAGE; settings: 20 μM h-IAPP
T1 construct: the soluble extracellular domain of RAGE (sRAGE); made in house; host or cells: Sf9 insect cells (baculovirus)
T1 sequence (Q15109 23-342): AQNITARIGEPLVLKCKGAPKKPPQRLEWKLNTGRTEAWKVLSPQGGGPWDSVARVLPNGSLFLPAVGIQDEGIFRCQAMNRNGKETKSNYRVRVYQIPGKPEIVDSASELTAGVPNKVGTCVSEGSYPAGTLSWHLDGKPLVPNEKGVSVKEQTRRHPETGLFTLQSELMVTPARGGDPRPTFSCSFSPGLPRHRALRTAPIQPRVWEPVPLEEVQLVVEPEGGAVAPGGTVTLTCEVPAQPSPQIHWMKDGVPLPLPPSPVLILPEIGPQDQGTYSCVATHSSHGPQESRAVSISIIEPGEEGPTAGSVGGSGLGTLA
Method: A 20 μM h-IAPP solution was prepared in 16 mM tris HCl buffer (pH 7.4) and aliquots of the reaction were analyzed for binding at various incubation times after peptide dissolution. All SPR binding experiments were carried out on a GE Healthcare SPR instrument in the laboratory of Dr. Donald Landry at Columbia University Medical Center.

## CC[C@H](C)[C@H](NC(=O)[C@H](C)NC(=O)CNC(=O)[C@H](Cc1ccccc1)NC(=O)[C@H](CC(N)=O)NC(=O)[C@H](CC(N)=O)NC(=O)[C@H](CO)NC(=O)[C@H](CO)NC(=O)[C@H](Cc1c[nH]cn1)NC(=O)[C@@H](NC(=O)[C@H](CC(C)C)NC(=O)[C@H](Cc1ccccc1)NC(=O)[C@H](CC(N)=O)NC(=O)[C@H](C)NC(=O)[C@H](CC(C)C)NC(=O)[C@H](CCCNC(=N)N)NC(=O)[C@H](CCC(N)=O)NC(=O)[C@@H](NC(=O)[C@H](C)NC(=O)[C@@H]1CSSC[C@H](NC(=O)[C@@H](N)CCCCN)C(=O)N[C@@H](CC(N)=O)C(=O)N[C@@H]([C@@H](C)O)C(=O)N[C@@H](C)C(=O)N[C@@H]([C@@H](C)O)C(=O)N1)[C@@H](C)O)C(C)C)C(=O)N[C@@H](CC(C)C)C(=O)N[C@@H](CO)C(=O)N[C@@H](CO)C(=O)N[C@H](C(=O)N[C@@H](CC(N)=O)C(=O)N[C@H](C(=O)NCC(=O)N[C@@H](CO)C(=O)N[C@@H](CC(N)=O)C(=O)N[C@H](C(=O)N[C@@H](Cc1ccc(O)cc1)C(N)=O)[C@@H](C)O)C(C)C)[C@@H](C)O [h-IAPP, human islet amyloid polypeptide]
Rat INS-1 β-cells; amyloid fibrils added to cultured cells
  cell toxicity of amyloid fibrils: No toxicity was observed
Rat INS-1 β-cells; peptide incubated in buffer at room temperature for various times, then applied to INS-1 β-cells
  cell toxicity (AlamarBlue cell viability, light microscopy): maximum toxicity was observed at intermediate time points
Rat INS-1 β-cells; resuspended pellet added to beta cells
  toxicity of resuspended pellet after ultracentrifugation: the resuspended pellet is not
Rat INS-1 β-cells; supernatant added to beta cells
  toxicity of soluble phase after ultracentrifugation: toxic to beta cells
[1]
  time at which the amyloid formation reaction reaches saturation: about 40 hrs
sRAGE; intermediates
  RAGE binding of transiently populated intermediates (SPR): binds transiently populated intermediates
sRAGE; monomers or amyloid fibrils
  RAGE binding of monomers or amyloid fibrils (SPR): does not bind to h-IAPP monomers or amyloid fibrils
